The values below come from the NIST ThermoML archive (doi:10.1016/j.jct.2016.12.018).

± gives the expanded uncertainty stated by the source.

A short description of data set [1]: refractive index (Na D-line) (dimensionless). The note with it: 293.15 K; 100 kPa; Liquid; Standard Abbe refractometry.
For data set [2] the following is noted: 293.15 K; 100 kPa; Liquid; Vibrating tube method.

One may read the refractive index as a measure of how strongly the sample bends light. On to `O` [water], for which the refractive index in data set [1] came to 1.33299 ± 0.001.

Usually mass density stands for the mass of a sample divided by its volume. For `CC12CCC(CC1)C(C)(C)O2` [1,3,3-trimethyl-2-oxabicyclo[2.2.2]octane], the mass density in data set [2] is 924.84 ± 2 kg/m3. Besides, the refractive index in data set [1] turned out to be 1.45756 ± 0.0011.
